Tests used:
WI-38 cells [1] = test: IC50 for inhibition of IL-1β-stimulated PGE2 production in WI-38 cells; format: cell-based, human; settings: PGE2 in supernatant, IL-1β stimulation, 24 hours, EIA
Description: Nominal 5 mM solutions of the budesonide fatty acid esters were made in DMSO by adding the following amounts of compound and DMSO: docosahexaenoic acid ester of budesonide 7.5 mg in 2 ml DMSO, docosapentaenoic acid ester of budesonide 32.9 mg in 9.1 ml DMSO and eicosapentaenoic acid ester of budesonide 20.3 mg in 5.8 ml DMSO. A 5 mM solution of budesonide was made by dissolving 4.5 mg of budesonide (Sigma Chemical Company product number B 7777) in 2.1 ml DMSO.
(§1) The WI-38 human lung fibroblast line was obtained from the ATCC (catalog number 75-CCL) and maintained in Basel Medium Eagle with Earle's salts (GibcoBRL product number 21010-046) supplemented with 2 mM glutamine and 10% fetal calf serum at 37° C. in a 7% CO2 (balance air), humidified atmosphere. One week before experiments were done, the WI-38 cells were seeded into 48-well tissue culture dishes and maintained in media containing 10% fetal calf serum. The cells were used when confluent. The day before the experiment the cells were fed fresh media containing 10% fetal calf serum (0.25 ml per well). One the day of the experiment the media was removed from the cells and 0.25 ml of media containing 5% fetal calf serum added.
To determine the IC50 values for the compounds, 1 to 1000 dilutions were made of the 5 mM stock solutions in DMSO to give 5 uM solutions. These solutions were serially diluted 1:2 in DMSO to give a series of 12 dilutions ranging from 5 uM to 2.4 nM. 0.0025 ml aliquots of the 12 dilutions were added to wells of the WI-38 cells to give final compound concentrations ranging from 50 nM to 0.024 nM. The cells were stimulated by addition of 0.001 ml of 0.025 ug/ml recombinant human Interleukin-1β (IL-1β-Calbiochem catalog number 407615) in 0.1% bovine serum albumin in phosphate buffered saline. The cells were incubated for 24 hours and the supernatants harvested. The level of PGE2 in the supernatants was assayed using a commercial Enzyme Immuno Assay (EIA) kit (Cayman Chemical catalog number 514010) after diluting 1:10 in EIA buffer according to the manufacturer's directions. The data from these experiments was fit to a 4 parameter logistic function using the IC50 routine in the Grafit 4 program (Erithecus software).

paw edema = test: Rat paw edema model; format: in vivo
Description: Putative anti-inflammatory agents may also be tested in vivo in a rat paw edema model [Hirschelmann, R. and Bekemeier, H., Int J Tissue React 6, 471-475 (1984)], which persons of skill in the art accept as predictive of efficacy in treating asthma and rhinitis in humans. The phytanic acid ester of budesonide was tested in this model.

RAW 264.7 cells = test: Wash-out (duration of action) experiment, PGE2 production in LPS-stimulated RAW 264.7 cells; format: cell-based, rat; settings: 2 hours at 50 times the IC50, washed 5 times, E. coli LPS stimulation, 24 hours
Description: The […] cell line RAW 264.7 was obtained from the ATCC (catalog number 71-TIB) and maintained in Dulbecco's Modified Eagle Medium (GibcoBRL product number 11960-044) supplemented with 2 mM glutamine, 1 mM sodium pyruvate and 10% fetal calf serum at 37° C. in a 10% CO2 (balance air), humidified atmosphere. One week before experiments were done, the WI-38 cells were seeded into 48-well tissue culture dishes and maintained in media containing 10% fetal calf serum. The cells were used when confluent. The day before the experiment the cells were fed fresh media containing 10% fetal calf serum (0.25 ml per well). One the day of the experiment the media was removed from the cells and 0.25 ml of media containing 5% fetal calf serum added.
(§2) To test for duration of action, a wash-out experiment was performed as follows. Confluent cells in 48-well tissue culture dishes were treated with concentrations of the above compounds that were 50 times the IC50 values as determined above for 2 hours. The media was removed and the wells washed 5 times with 0.25 ml of media containing 5% fetal calf serum. 0.25 ml of media containing 5% fetal calf serum was then added. The WI-38 cells were stimulated by addition of 0.001 ml of 0.025 ug/ml recombinant human Interleukin-1β (Calbiochem catalog number 407615) in 0.1% bovine serum albumin in phosphate buffered saline. The RAW 264.7 cells were stimulated by addition of 0.001 ml of 0.5 ug/ml E. coli 0127:B8 lipopolysaccharide (LPS-Sigma catalog number L-4516) in 0.1% bovine serum albumin in phosphate buffered saline. The cells were incubated for 24 hours and the supernatants harvested. The level of PGE2 in the supernatants was assayed using a commercial Enzyme Immuno Assay (EIA) kit (Cayman Chemical catalog number 514010) after diluting 1:10 in EIA buffer according to the manufacturer's directions. Eight wells were used for each concentration and the results from these eight wells were averaged.

WI-38 cells [2] = test: Wash-out (duration of action) experiment, PGE2 production in IL-1β-stimulated WI-38 cells; format: cell-based, human; settings: 2 hours at 50 times the IC50, washed 5 times, IL-1β stimulation, 24 hours
Description: as §1, §2

## CCCC1O[C@@H]2C[C@H]3[C@@H]4CCC5=CC(=O)C=C[C@]5(C)[C@H]4[C@@H](O)C[C@]3(C)[C@]2(C(=O)CO)O1 (stereo partly shown) [Budesonide, budesonide, reference compound]
WI-38 cells [1]; Homo sapiens, WI-38
  IC50: 0.2 nM
Paw edema; dose 0.001 μg/paw, 1.5 hours
  percent reduction in paw volume: 0%
Paw edema; dose 0.001 μg/paw, 3 hours
  percent reduction in paw volume: 20%
Paw edema; dose 0.001 μg/paw, 4.5 hours
  percent reduction in paw volume: 15%
Paw edema; dose 0.001 μg/paw, 24 hours
  percent reduction in paw volume: 4%
Paw edema; dose 0.001 μg/paw, 48 hours
  percent reduction in paw volume: 3%
Paw edema; dose 0.001 μg/paw, 72 hours
  percent reduction in paw volume: 0%
Paw edema; dose 0.01 μg/paw, 1.5 hours
  percent reduction in paw volume: 0%
Paw edema; dose 0.01 μg/paw, 3 hours
  percent reduction in paw volume: 18%
Paw edema; dose 0.01 μg/paw, 4.5 hours
  percent reduction in paw volume: 0%
Paw edema; dose 0.01 μg/paw, 24 hours
  percent reduction in paw volume: 11%
Paw edema; dose 0.01 μg/paw, 48 hours
  percent reduction in paw volume: 0%
Paw edema; dose 0.01 μg/paw, 72 hours
  percent reduction in paw volume: 3%
Paw edema; dose 0.1 μg/paw, 1.5 hours
  percent reduction in paw volume: 14%
Paw edema; dose 0.1 μg/paw, 3 hours
  percent reduction in paw volume: 5%
Paw edema; dose 0.1 μg/paw, 4.5 hours
  percent reduction in paw volume: 0%
Paw edema; dose 0.1 μg/paw, 24 hours
  percent reduction in paw volume: 0%
Paw edema; dose 0.1 μg/paw, 48 hours
  percent reduction in paw volume: 0%
Paw edema; dose 0.1 μg/paw, 72 hours
  percent reduction in paw volume: 0%
Paw edema; dose 1 μg/paw, 1.5 hours
  percent reduction in paw volume: 36%
Paw edema; dose 1 μg/paw, 3 hours
  percent reduction in paw volume: 45%
Paw edema; dose 1 μg/paw, 4.5 hours
  percent reduction in paw volume: 32%
Paw edema; dose 1 μg/paw, 24 hours
  percent reduction in paw volume: 44%
Paw edema; dose 1 μg/paw, 48 hours
  percent reduction in paw volume: 17%
Paw edema; dose 1 μg/paw, 72 hours
  percent reduction in paw volume: 10%
Paw edema; dose 10 μg/paw, 1.5 hours
  percent reduction in paw volume: 11%
Paw edema; dose 10 μg/paw, 3 hours
  percent reduction in paw volume: 33%
Paw edema; dose 10 μg/paw, 4.5 hours
  percent reduction in paw volume: 34%
Paw edema; dose 10 μg/paw, 24 hours
  percent reduction in paw volume: 70%
Paw edema; dose 10 μg/paw, 48 hours
  percent reduction in paw volume: 38%
Paw edema; dose 10 μg/paw, 72 hours
  percent reduction in paw volume: 6%
RAW 264.7 cells
  PGE2 production: 1339 pg/mL
WI-38 cells [2]
  PGE2 production: 2688 pg/mL

## CCC=CCC=CCC=CCC=CCC=CCC=CCCC(=O)OCC(=O)C12OC(CCC)OC1CC1C3CCC4=CC(=O)C=CC4(C)C3C(O)CC12C (stereo not shown) [Docosahexaenoic acid ester of budesonide, docosahexaenoic acid ester of budesonide]
WI-38 cells [1]
  IC50: 1.1 nM
RAW 264.7 cells
  PGE2 production: 892 pg/mL
WI-38 cells [2]
  PGE2 production: 2075 pg/mL

## CCCC1OC2CC3C4CCC5=CC(=O)C=CC5(C)C4C(O)CC3(C)C2(C(=O)COC(=O)CC(C)CCCC(C)CCCC(C)CCCC(C)C)O1 (stereo not shown) [Phytanic acid ester of Budesonide, phytanic acid ester of budesonide]
Paw edema; dose 0.0017 μg/paw, 1.5 hours
  percent reduction in paw volume: 0%
Paw edema; dose 0.0017 μg/paw, 3 hours
  percent reduction in paw volume: 10%
Paw edema; dose 0.0017 μg/paw, 4.5 hours
  percent reduction in paw volume: 12%
Paw edema; dose 0.0017 μg/paw, 24 hours
  percent reduction in paw volume: 4%
Paw edema; dose 0.0017 μg/paw, 48 hours
  percent reduction in paw volume: 7%
Paw edema; dose 0.0017 μg/paw, 72 hours
  percent reduction in paw volume: 3%
Paw edema; dose 0.017 μg/paw, 1.5 hours
  percent reduction in paw volume: 0%
Paw edema; dose 0.017 μg/paw, 3 hours
  percent reduction in paw volume: 0%
Paw edema; dose 0.017 μg/paw, 4.5 hours
  percent reduction in paw volume: 0%
Paw edema; dose 0.017 μg/paw, 24 hours
  percent reduction in paw volume: 0%
Paw edema; dose 0.017 μg/paw, 48 hours
  percent reduction in paw volume: 0%
Paw edema; dose 0.017 μg/paw, 72 hours
  percent reduction in paw volume: 6%
Paw edema; dose 0.17 μg/paw, 1.5 hours
  percent reduction in paw volume: 0%
Paw edema; dose 0.17 μg/paw, 3 hours
  percent reduction in paw volume: 0%
Paw edema; dose 0.17 μg/paw, 4.5 hours
  percent reduction in paw volume: 0%
Paw edema; dose 0.17 μg/paw, 24 hours
  percent reduction in paw volume: 0%
Paw edema; dose 0.17 μg/paw, 48 hours
  percent reduction in paw volume: 0%
Paw edema; dose 0.17 μg/paw, 72 hours
  percent reduction in paw volume: 0%
Paw edema; dose 1.7 μg/paw, 1.5 hours
  percent reduction in paw volume: 18%
Paw edema; dose 1.7 μg/paw, 3 hours
  percent reduction in paw volume: 15%
Paw edema; dose 1.7 μg/paw, 4.5 hours
  percent reduction in paw volume: 2%
Paw edema; dose 1.7 μg/paw, 24 hours
  percent reduction in paw volume: 30%
Paw edema; dose 1.7 μg/paw, 48 hours
  percent reduction in paw volume: 17%
Paw edema; dose 1.7 μg/paw, 72 hours
  percent reduction in paw volume: 16%
Paw edema; dose 17 μg/paw, 1.5 hours
  percent reduction in paw volume: 11%
Paw edema; dose 17 μg/paw, 3 hours
  percent reduction in paw volume: 5%
Paw edema; dose 17 μg/paw, 4.5 hours
  percent reduction in paw volume: 2%
Paw edema; dose 17 μg/paw, 24 hours
  percent reduction in paw volume: 74%
Paw edema; dose 17 μg/paw, 48 hours
  percent reduction in paw volume: 79%
Paw edema; dose 17 μg/paw, 72 hours
  percent reduction in paw volume: 65%
Paw edema; rat paw edema model, summary in words
  duration of effect: greatly extended duration of effect

## CCC=CCC=CCC=CCC=CCC=CCCCCCC(=O)OCC(=O)C12OC(CCC)OC1CC1C3CCC4=CC(=O)C=CC4(C)C3C(O)CC12C (stereo not shown) [docosapentaenoic acid ester of budesonide]
WI-38 cells [1]
  IC50: 9 nM
RAW 264.7 cells
  PGE2 production: 622 pg/mL
WI-38 cells [2]
  PGE2 production: 200 pg/mL

## CCC=CCC=CCC=CCC=CCC=CCCCC(=O)OCC(=O)C12OC(CCC)OC1CC1C3CCC4=CC(=O)C=CC4(C)C3C(O)CC12C (stereo not shown) [eicosapentaenoic acid ester of budesonide]
WI-38 cells [1]
  IC50: 1.3 nM
RAW 264.7 cells
  PGE2 production: 576 pg/mL
WI-38 cells [2]
  PGE2 production: 806 pg/mL

Source: patent US7390796B2, “Fatty acid modified forms of glucocorticoids” (Sepracor Inc., priority 2002, dated 2008)
